Experiment [1] has as its target Growth hormone secretagogue receptor type 1 (Rattus norvegicus, UniProt O08725). The experiment can be described thus: In vitro growth hormone release was determined in rat pituitary cell assay. It is filed as functional, cell-based, Pituitary gland cell.
The species named for experiment [2] is Rattus norvegicus. The experiment can be described thus: In vitro growth hormone release was determined in rat pituitary cell assay; NA means not active. To be noted: pituitary gland cell. It is filed as functional.

Chain of Growth hormone secretagogue receptor type 1 (O08725 whole entry): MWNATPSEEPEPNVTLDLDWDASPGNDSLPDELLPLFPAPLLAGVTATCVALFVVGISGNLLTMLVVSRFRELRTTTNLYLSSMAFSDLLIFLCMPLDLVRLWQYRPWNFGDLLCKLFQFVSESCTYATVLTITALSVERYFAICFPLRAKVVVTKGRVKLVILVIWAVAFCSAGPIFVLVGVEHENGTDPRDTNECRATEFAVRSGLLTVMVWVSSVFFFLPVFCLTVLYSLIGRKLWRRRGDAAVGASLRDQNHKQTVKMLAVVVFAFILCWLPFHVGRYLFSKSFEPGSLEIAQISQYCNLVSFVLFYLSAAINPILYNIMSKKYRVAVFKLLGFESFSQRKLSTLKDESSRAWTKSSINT

`CC(C)(N)CC(=O)N[C@@H]1CCc2ccccc2N(Cc2ccc(-c3ccccc3-c3nnn[nH]3)cc2)C1=O`: in experiment [1], a half-maximal effect (EC50) was put at 60 nM. This lies in the double-digit nanomolar range.
Take `CC(C)(N)C(=O)N[C@H](Cc1c[nH]c2ccccc12)C(=O)N1CCC2(CC1)Cc1ccccc1C2`: a half-maximal response in experiment [1] (EC50) required 37 nM.
For `CC(C)(N)C(=O)N[C@H](Cc1c[nH]c2ccccc12)C(=O)N1CCCC2(Cc3ccccc3C2=O)C1` (stereo partly drawn), the concentration for a half-maximal effect (EC50) in experiment [1] was found to be 20 nM. Compared with the last compound, the EC50 is about 1.9-fold lower.
On the same count and under the same terms, in the case of `CC(C)(N)C(=O)N[C@H](Cc1c[nH]c2ccccc12)C(=O)N1CCC2(CC1)Cc1ccccc1C2O` (stereo partly drawn) it was 19 nM; in that of `CC(C)(N)C(=O)N[C@H](Cc1c[nH]c2ccccc12)C(=O)N1CCCC2(CC(O)c3ccccc3O2)C1` (stereo partly drawn), 1.2 nM; in that of `CC(C)(N)C(=O)N[C@H](Cc1c[nH]c2ccccc12)C(=O)N1CCCC2(CC(=O)c3ccccc3O2)C1` (stereo partly drawn), 1.8 nM.
Same read-out and setting: in the case of `CC(C)(N)C(=O)N[C@H](Cc1c[nH]c2ccccc12)C(=O)N1CCC2(CC1)CC(=O)c1ccccc1O2` it was 37 nM; in that of `CC(C)(N)C(=O)N[C@H](Cc1c[nH]c2ccccc12)C(=O)N1CCCC2(Cc3ccccc3C2)C1`, 60 nM; in that of `CC(C)(N)C(=O)N[C@H](Cc1c[nH]c2ccccc12)C(=O)N1CCC2(CC1)CC(O)c1ccccc1O2` (stereo partly drawn), 16 nM.
`CC(C)(N)C(=O)N[C@H](Cc1c[nH]c2ccccc12)C(=O)N1CCC2(CCCc3ccccc32)CC1` gave an EC50 in experiment [1] of 66 nM.
Regarding `CC(C)(N)C(=O)N[C@H](Cc1c[nH]c2ccccc12)C(=O)N1CCC2(CC1)Cc1ccccc1C2=O`, the EC50 in experiment [1] came to 42 nM.
`CC(C)(N)C(=O)N[C@H](Cc1c[nH]c2ccccc12)C(=O)N1CCCC2(CCc3ccccc3O2)C1` (stereo partly drawn): the EC50 in experiment [1] worked out at 2.9 nM. Compared with the last compound, the EC50 is about 14-fold lower.
The compound `CC(C)(N)C(=O)N[C@H](Cc1c[nH]c2ccccc12)C(=O)N1CCC[C@@]2(CC(=O)c3ccccc3O2)C1` showed an EC50 in experiment [1] of 1.2 nM.
`CC(C)(N)C(=O)N[C@H](Cc1c[nH]c2ccccc12)C(=O)N1CCC[C@]2(CC(=O)c3ccccc3O2)C1` registered a concentration giving a half-maximal response (EC50) in experiment [1] of 57 nM.
The compound `CC(C)(N)C(=O)N[C@H](Cc1c[nH]c2ccccc12)C(=O)N1CCCC2(CCc3ccccc32)C1` (stereo partly drawn) showed a concentration giving a half-maximal response (EC50) in experiment [1] of 630 nM.
In experiment [1], `CC(C)(N)C(=O)N[C@H](Cc1c[nH]c2ccccc12)C(=O)N1CCC2(CCc3ccccc32)CC1` [L-162752] came in with a concentration giving a half-maximal response (EC50) of 14 nM.
In experiment [1], `CC(C)(N)C(=O)N[C@H](Cc1c[nH]c2ccccc12)C(=O)N1CCC2(CCc3ccccc3O2)CC1` showed a concentration giving a half-maximal response (EC50) of 25 nM.
Consider `CC(C)(N)C(=O)N[C@H](Cc1c[nH]c2ccccc12)C(=O)N1CCCC2(Cc3ccccc3C2O)C1` (stereo partly drawn), for which, in experiment [2], the EC50 entry is “Not Active”.
